Measurements taken from US11572369B2, “Bicyclic pyridine compositions and methods of using the same for cancer therapy” (UNIVERSITY OF SOUTH CAROLINA, priority 2019, dated 2023).

How the values were obtained:
Experiment in all cases: KINOMEscan
Type in all cases: binding
Settings in all cases: 2000 nM
SNRK = target: T1, SNRK (Homo sapiens, UniProt Q9NRH2)
T1 construct: purchased KINOMEscan (DiscoveRx)

NEK3 = target: T2, NEK3 (Homo sapiens, UniProt P51956)
T2 construct: DNA label (qPCR read-out); purchased KINOMEscan (ScanMAX panel service)

MAP4K5 = MAP4K5 (Homo sapiens, UniProt Q9Y4K4)
RIOK1 = target: T3, RIOK1 (Homo sapiens, UniProt Q9BRS2)
T3 construct: DNA label (qPCR read-out); purchased DiscoveRx (KINOMEscan ScanMAX panel)

KIT(V559D, V654A) = target: T4, KIT(V559D, V654A) (Homo sapiens, UniProt P10721, V559D/V654A)
T4 construct: purchased KINOMEscan (DiscoveRx) panel service

NEK9 = target: T5, NEK9 (Homo sapiens, UniProt Q8TD19)
T5 construct: DNA label (qPCR read-out); purchased KINOMEscan (ScanMAX panel service)

[1] = target: ABL1(F317I)-phosphorylated (Homo sapiens, UniProt P00519, F317I)
FLT3-autoinhibited = target: T6, FLT3-autoinhibited (Homo sapiens, UniProt P36888)
T6 construct: purchased KINOMEscan (DiscoveRx)

MEK4 = target: T7, MEK4 (Homo sapiens, UniProt P45985)
T7 construct: purchased DiscoveRx (KINOMEscan scanMAX panel, service)

PIK3CA(I800L) = target: T8, PIK3CA(I800L) (Homo sapiens, UniProt P42336, I800L)
T8 construct: DNA label; purchased DiscoveRx (KINOMEscan scanMAX panel)
T8 sequence (P42336 whole entry I800L): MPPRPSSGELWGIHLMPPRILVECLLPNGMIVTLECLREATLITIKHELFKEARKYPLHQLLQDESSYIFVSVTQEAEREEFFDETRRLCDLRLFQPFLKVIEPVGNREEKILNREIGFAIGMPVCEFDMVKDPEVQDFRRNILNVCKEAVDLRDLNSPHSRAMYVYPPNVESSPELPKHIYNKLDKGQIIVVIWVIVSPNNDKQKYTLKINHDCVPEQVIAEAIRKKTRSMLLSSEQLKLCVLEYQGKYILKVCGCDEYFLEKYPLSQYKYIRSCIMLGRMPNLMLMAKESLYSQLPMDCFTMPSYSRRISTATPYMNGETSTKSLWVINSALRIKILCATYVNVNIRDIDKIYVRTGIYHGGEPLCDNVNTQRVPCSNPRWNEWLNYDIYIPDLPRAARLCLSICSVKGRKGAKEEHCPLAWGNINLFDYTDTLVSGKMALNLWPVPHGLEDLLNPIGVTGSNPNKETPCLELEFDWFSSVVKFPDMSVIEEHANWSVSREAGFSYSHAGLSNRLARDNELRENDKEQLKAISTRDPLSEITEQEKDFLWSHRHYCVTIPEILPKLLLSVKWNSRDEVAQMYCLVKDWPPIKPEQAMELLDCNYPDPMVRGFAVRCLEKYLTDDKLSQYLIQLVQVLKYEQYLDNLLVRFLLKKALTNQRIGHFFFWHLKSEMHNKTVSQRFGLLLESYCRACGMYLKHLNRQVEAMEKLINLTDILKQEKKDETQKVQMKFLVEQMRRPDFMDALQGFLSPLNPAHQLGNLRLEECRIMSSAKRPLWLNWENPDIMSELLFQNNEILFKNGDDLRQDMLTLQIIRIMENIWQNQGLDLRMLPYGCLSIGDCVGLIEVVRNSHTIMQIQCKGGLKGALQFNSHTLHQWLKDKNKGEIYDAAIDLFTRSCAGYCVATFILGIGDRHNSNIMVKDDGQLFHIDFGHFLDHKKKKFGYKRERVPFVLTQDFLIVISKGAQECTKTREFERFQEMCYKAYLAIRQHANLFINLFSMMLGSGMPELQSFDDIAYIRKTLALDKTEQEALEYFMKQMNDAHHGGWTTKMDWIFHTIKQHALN

MAP4K3 = MAP4K3 (Homo sapiens, UniProt Q8IVH8)
PYK2 = target: T9, PYK2 (Homo sapiens, UniProt Q14289)
T9 construct: purchased DiscoveRx (KINOMEscan scanMAX panel)

CAMK4 = target: T10, CAMK4 (Homo sapiens, UniProt Q16566)
T10 construct: DNA label (qPCR read-out); purchased KINOMEscan (ScanMAX panel service)

TLK1 = target: T11, TLK1 (Homo sapiens, UniProt Q9UKI8)
T11 construct: DNA label (qPCR read-out); purchased KINOMEscan (DiscoveRx) ScanMAX panel

PIKFYVE = target: T12, PIKFYVE (Homo sapiens, UniProt Q9Y2I7)
T12 construct: DNA label; purchased DiscoveRx (KINOMEscan scanMAX panel)

NEK10 = target: T13, NEK10 (Homo sapiens, UniProt Q6ZWH5)
T13 construct: DNA label (qPCR read-out); purchased KINOMEscan (ScanMAX panel service)

MINK = target: T14, MINK (Homo sapiens, UniProt Q8N4C8)
T14 construct: DNA label (qPCR read-out); purchased KINOMEscan scanMAX panel (DiscoveRx)

PAK6 = target: T15, PAK6 (Homo sapiens, UniProt Q9NQU5)
T15 construct: purchased DiscoverX (KINOMEscan service)

PIP5K2C = target: T16, PIP5K2C (Homo sapiens, UniProt Q8TBX8)
T16 construct: DNA label (qPCR read-out); purchased KINOMEscan (DiscoveRx) panel
T16 sequence (Q8TBX8 whole entry): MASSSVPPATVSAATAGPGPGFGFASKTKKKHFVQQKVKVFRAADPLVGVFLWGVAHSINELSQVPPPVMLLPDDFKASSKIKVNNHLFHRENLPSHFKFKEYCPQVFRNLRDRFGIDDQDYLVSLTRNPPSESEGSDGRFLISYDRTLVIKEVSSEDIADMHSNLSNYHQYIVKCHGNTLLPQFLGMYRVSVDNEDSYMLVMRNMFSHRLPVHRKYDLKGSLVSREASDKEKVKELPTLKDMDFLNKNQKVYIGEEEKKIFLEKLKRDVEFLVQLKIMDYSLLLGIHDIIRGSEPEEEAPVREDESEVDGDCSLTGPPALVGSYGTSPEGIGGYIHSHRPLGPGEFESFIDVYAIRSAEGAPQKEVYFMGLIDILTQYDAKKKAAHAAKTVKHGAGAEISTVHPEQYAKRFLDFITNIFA

DDR1 = target: T17, DDR1 (Homo sapiens, UniProt Q08345)
T17 construct: DNA label (qPCR read-out); purchased KINOMEscan (DiscoveRx) panel

MEK6 = target: T18, MEK6 (Homo sapiens, UniProt P52564)
T18 construct: purchased DiscoveRx (KINOMEscan scanMAX panel, service)
T18 sequence (P52564 whole entry): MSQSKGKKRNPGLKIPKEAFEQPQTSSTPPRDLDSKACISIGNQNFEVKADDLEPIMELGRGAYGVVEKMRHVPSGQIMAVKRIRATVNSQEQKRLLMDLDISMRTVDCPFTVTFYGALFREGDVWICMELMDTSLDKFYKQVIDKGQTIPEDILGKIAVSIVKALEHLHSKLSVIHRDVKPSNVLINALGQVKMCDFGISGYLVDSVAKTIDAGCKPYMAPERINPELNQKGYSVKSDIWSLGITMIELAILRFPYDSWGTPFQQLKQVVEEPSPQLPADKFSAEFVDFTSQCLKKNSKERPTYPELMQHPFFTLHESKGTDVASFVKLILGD

FLT3(R834Q) = target: T19, FLT3(R834Q) (Homo sapiens, UniProt P36888, R834Q)
T19 construct: purchased KINOMEscan (DiscoveRx)

MTOR = target: T20, MTOR (Homo sapiens, UniProt P42345)
T20 construct: DNA label (for qPCR read-out); purchased KINOMEscan scanMAX panel (DiscoveRx)

DLK = target: T21, DLK (Homo sapiens, UniProt Q12852)
T21 construct: DNA label (qPCR read-out); purchased KINOMEscan (DiscoveRx) panel

TNK1 = target: T22, TNK1 (Homo sapiens, UniProt Q13470)
T22 construct: DNA label (qPCR read-out); purchased KINOMEscan (DiscoveRx) ScanMAX panel
T22 sequence (Q13470 whole entry): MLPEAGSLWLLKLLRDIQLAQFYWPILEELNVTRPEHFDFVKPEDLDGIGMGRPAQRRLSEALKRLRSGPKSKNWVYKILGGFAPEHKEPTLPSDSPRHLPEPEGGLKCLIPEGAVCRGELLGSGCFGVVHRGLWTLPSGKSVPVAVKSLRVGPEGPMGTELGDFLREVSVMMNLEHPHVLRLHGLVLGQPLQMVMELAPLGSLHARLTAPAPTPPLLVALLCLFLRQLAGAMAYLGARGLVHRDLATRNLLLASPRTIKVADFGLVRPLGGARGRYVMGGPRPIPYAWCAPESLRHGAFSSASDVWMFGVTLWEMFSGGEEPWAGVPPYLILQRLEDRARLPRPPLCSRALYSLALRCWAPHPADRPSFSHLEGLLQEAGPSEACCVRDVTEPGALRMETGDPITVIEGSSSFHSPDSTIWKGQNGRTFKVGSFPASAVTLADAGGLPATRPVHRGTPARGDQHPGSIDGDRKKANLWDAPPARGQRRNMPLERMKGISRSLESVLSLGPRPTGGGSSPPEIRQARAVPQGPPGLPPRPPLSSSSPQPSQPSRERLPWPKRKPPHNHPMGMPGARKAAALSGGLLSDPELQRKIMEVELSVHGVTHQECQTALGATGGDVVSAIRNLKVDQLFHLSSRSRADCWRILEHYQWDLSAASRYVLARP

MET(M1250T) = target: T23, MET(M1250T) (Homo sapiens, UniProt P08581, M1250T)
T23 construct: purchased DiscoveRx (KINOMEscan scanMAX panel, service)

DCAMKL1 = target: T24, DCAMKL1 (Homo sapiens, UniProt O15075)
T24 construct: DNA label (qPCR read-out); purchased KINOMEscan (DiscoveRx) panel
T24 sequence (O15075 whole entry): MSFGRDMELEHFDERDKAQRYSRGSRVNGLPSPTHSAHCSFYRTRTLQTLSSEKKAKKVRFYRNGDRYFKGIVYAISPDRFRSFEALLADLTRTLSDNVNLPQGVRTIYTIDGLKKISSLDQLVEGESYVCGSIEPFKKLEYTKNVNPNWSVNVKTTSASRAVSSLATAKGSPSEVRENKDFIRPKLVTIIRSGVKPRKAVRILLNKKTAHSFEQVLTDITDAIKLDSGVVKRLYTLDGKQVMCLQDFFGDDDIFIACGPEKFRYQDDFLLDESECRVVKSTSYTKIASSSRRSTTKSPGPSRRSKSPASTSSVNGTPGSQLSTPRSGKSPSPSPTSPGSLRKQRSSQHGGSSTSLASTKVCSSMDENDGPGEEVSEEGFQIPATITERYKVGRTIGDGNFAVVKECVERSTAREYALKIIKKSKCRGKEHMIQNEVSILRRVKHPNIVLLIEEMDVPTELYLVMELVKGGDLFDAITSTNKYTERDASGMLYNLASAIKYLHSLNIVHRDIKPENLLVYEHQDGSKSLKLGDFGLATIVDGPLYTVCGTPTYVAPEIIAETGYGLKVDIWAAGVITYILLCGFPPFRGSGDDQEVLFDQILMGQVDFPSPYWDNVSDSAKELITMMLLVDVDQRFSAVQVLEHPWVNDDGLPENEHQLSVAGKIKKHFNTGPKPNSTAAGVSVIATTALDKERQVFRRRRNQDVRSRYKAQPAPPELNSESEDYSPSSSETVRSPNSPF

PIK3CD = target: T25, PIK3CD (Homo sapiens, UniProt O00329)
T25 construct: DNA label; purchased DiscoveRx (KINOMEscan scanMAX panel)

PRKCH = target: T26, PRKCH (Homo sapiens, UniProt P24723)
T26 construct: purchased DiscoveRx (KINOMEscan scanMAX panel)
T26 sequence (P24723 whole entry): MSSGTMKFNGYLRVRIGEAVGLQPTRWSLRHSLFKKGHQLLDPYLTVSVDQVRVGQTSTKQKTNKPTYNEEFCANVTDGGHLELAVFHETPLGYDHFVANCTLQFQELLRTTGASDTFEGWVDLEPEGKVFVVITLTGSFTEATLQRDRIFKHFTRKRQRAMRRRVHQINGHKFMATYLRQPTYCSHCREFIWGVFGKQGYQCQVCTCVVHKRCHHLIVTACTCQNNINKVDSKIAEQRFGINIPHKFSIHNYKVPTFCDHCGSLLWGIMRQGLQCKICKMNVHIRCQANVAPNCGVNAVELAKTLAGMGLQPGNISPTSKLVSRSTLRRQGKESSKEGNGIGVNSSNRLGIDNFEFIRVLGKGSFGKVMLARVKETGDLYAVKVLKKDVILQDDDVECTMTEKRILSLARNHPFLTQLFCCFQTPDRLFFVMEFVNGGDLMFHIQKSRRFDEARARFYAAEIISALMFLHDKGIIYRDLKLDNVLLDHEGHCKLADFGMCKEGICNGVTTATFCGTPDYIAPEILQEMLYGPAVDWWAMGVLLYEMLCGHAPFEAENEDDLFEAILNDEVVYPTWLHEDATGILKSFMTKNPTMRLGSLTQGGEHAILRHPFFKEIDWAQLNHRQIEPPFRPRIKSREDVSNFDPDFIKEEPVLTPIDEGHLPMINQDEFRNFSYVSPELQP

AKT3 = target: T27, AKT3 (Homo sapiens, UniProt Q9Y243)
T27 construct: purchased DiscoveRx (KINOMEscan scanMAX panel, service)

TSSK1B = target: T28, TSSK1B (Homo sapiens, UniProt Q9BXA7)
T28 construct: DNA label (for qPCR read-out); purchased DiscoveRx (KINOMEscan scanMAX panel)

PLK4 = target: T29, PLK4 (Homo sapiens, UniProt O00444)
T29 construct: purchased DiscoveRx (KINOMEscan scanMAX panel)

PAK3 = target: T30, PAK3 (Homo sapiens, UniProt O75914)
T30 construct: purchased DiscoverX (KINOMEscan service)
T30 sequence (O75914 whole entry): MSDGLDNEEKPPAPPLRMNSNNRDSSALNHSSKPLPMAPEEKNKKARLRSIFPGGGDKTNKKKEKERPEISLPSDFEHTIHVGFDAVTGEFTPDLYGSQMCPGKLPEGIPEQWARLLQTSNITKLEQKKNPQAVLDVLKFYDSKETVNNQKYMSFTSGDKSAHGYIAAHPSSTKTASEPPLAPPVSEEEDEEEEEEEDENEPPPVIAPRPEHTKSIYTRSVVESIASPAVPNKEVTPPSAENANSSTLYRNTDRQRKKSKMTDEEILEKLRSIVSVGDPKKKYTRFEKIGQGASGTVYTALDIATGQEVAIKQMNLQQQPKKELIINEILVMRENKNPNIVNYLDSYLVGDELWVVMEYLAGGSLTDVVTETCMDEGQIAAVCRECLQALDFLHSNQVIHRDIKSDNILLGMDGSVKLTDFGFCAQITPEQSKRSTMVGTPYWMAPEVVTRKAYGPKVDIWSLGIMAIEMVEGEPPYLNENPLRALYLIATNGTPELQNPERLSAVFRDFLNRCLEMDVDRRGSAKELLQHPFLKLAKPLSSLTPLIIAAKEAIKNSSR

[2] = target: ABL1(M351T)-phosphorylated (Homo sapiens, UniProt P00519, M351T)
PRKD1 = target: T31, PRKD1 (Homo sapiens, UniProt Q15139)
T31 construct: purchased DiscoveRx (KINOMEscan scanMAX panel)

[3] = target: T32, TYK2(JH2domain-pseudokinase) (Homo sapiens, UniProt P29597)
T32 construct: JH2domain; DNA label (for qPCR read-out); purchased DiscoveRx (KINOMEscan scanMAX panel)
T32 sequence (P29597 589-875 limits assumed): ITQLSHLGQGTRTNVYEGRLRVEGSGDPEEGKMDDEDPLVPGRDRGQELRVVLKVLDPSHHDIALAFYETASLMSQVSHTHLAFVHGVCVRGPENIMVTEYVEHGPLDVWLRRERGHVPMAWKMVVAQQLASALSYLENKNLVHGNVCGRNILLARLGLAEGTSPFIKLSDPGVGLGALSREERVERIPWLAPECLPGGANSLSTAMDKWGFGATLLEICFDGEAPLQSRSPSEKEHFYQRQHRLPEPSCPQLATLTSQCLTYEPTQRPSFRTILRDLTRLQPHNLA

CN(C)C(=O)c1ccc(N2CCCN(c3ccnc4sc(C(N)=O)c(N)c34)CC2)cc1 [15u, 3-amino-4-(4-(4-(dimethylcarbamoyl)phenyl)-1,4-diazepan-1-yl)thieno[2,3-b]pyridine-2-carboxamide]
% Ctrl (SNRK): 100 % Ctrl | % Ctrl (NEK3): 100 % Ctrl | % Ctrl (MAP4K5): 100 % Ctrl | % Ctrl (RIOK1): 100 % Ctrl | % Ctrl (KIT(V559D, V654A)): 100 % Ctrl | % Ctrl (NEK9): 100 % Ctrl | % Ctrl [1]: 88 % Ctrl | % Ctrl (FLT3-autoinhibited): 72 % Ctrl | % Ctrl (MEK4): 69 % Ctrl | % Ctrl (PIK3CA(I800L)): 97 % Ctrl | % Ctrl (MAP4K3): 91 % Ctrl | % Ctrl (PYK2): 97 % Ctrl | % Ctrl (CAMK4): 96 % Ctrl | % Ctrl (TLK1): 97 % Ctrl | % Ctrl (PIKFYVE): 91 % Ctrl | % Ctrl (NEK10): 93 % Ctrl | % Ctrl (MINK): 100 % Ctrl | % Ctrl (PAK6): 82 % Ctrl | % Ctrl (PIP5K2C): 80 % Ctrl | % Ctrl (DDR1): 82 % Ctrl | % Ctrl (MEK6): 100 % Ctrl | % Ctrl (FLT3(R834Q)): 100 % Ctrl | % Ctrl (MTOR): 88 % Ctrl | % Ctrl (DLK): 93 % Ctrl | % Ctrl (TNK1): 100 % Ctrl | % Ctrl (MET(M1250T)): 100 % Ctrl | % Ctrl (DCAMKL1): 100 % Ctrl | % Ctrl (PIK3CD): 94 % Ctrl | % Ctrl (PRKCH): 80 % Ctrl | % Ctrl (AKT3): 97 % Ctrl | % Ctrl (TSSK1B): 80 % Ctrl | % Ctrl (PLK4): 95 % Ctrl | % Ctrl (PAK3): 80 % Ctrl | % Ctrl [2]: 100 % Ctrl | % Ctrl (PRKD1): 88 % Ctrl | % Ctrl [3]: 73 % Ctrl

[2H]C([2H])([2H])N(C(=O)c1ccc(N2CCCN(c3ccnc4sc(C(N)=O)c(N)c34)CC2)cc1)C([2H])([2H])[2H] [15u_D6, 3-amino-4-(4-(4-(bis(methyl-d3)carbamoyl)phenyl)-1,4-diazepan-1-yl)thieno[2,3-b]pyridine-2-carboxamide]
% Ctrl (SNRK): 75 % Ctrl | % Ctrl (NEK3): 76 % Ctrl | % Ctrl (MAP4K5): 97 % Ctrl | % Ctrl (RIOK1): 100 % Ctrl | % Ctrl (KIT(V559D, V654A)): 100 % Ctrl | % Ctrl (NEK9): 89 % Ctrl | % Ctrl [1]: 84 % Ctrl | % Ctrl (FLT3-autoinhibited): 77 % Ctrl | % Ctrl (MEK4): 74 % Ctrl | % Ctrl (PIK3CA(I800L)): 74 % Ctrl | % Ctrl (MAP4K3): 95 % Ctrl | % Ctrl (PYK2): 84 % Ctrl | % Ctrl (CAMK4): 79 % Ctrl | % Ctrl (TLK1): 85 % Ctrl | % Ctrl (PIKFYVE): 98 % Ctrl | % Ctrl (NEK10): 61 % Ctrl | % Ctrl (MINK): 87 % Ctrl | % Ctrl (PAK6): 99 % Ctrl | % Ctrl (PIP5K2C): 64 % Ctrl | % Ctrl (DDR1): 90 % Ctrl | % Ctrl (MEK6): 96 % Ctrl | % Ctrl (FLT3(R834Q)): 68 % Ctrl | % Ctrl (MTOR): 97 % Ctrl | % Ctrl (DLK): 89 % Ctrl | % Ctrl (TNK1): 100 % Ctrl | % Ctrl (MET(M1250T)): 96 % Ctrl | % Ctrl (DCAMKL1): 89 % Ctrl | % Ctrl (PIK3CD): 71 % Ctrl | % Ctrl (PRKCH): 96 % Ctrl | % Ctrl (AKT3): 100 % Ctrl | % Ctrl (TSSK1B): 99 % Ctrl | % Ctrl (PLK4): 92 % Ctrl | % Ctrl (PAK3): 40 % Ctrl | % Ctrl [2]: 77 % Ctrl | % Ctrl (PRKD1): 92 % Ctrl | % Ctrl [3]: 59 % Ctrl
